Assay results published in patent publication US20260124184A1, “ONCE DAILY ALDOSTERONE SYNTHASE INHIBITOR (R)-(+)-5-(P-CYANOPHENYL)-5,6,7,8-TETRAHYDROIMIDAZO[L,5-A]PYRIDINE” (priority 2022, published 2026).
Entries after “also recorded” stand apart in the source; their conditions may differ. Where two headings read alike, the source gives them in different places.

How the values were obtained:
[1] = test system: patients with primary aldosteronism
Protocol: (§1) A double-blind, randomized, Phase 2 trial was conducted between November 2019 and June 2022 at 11 centres in Italy, Switzerland and the Netherlands (NCT04007406). […] Patients requiring fixed-dose antihypertensive therapy continued treatment throughout the study; steroid therapies, β-adrenergic and renin-angiotensin-aldosterone system blockers were not permitted. At 14-day intervals, office blood pressures were recorded and blood samples were taken for measurement of steroid and peptide hormones and electrolytes at a central laboratory.
Plasma aldosterone and plasma renin concentration were measured centrally under GCP regulations using the Liaison® chemiluminescent immunoassay kit supplied by DiaSorin S.p.A. Italy. The system used specific monoclonal antibodies to prevent cross reactions with other major potential reactants in the serum samples. The monoclonal antibodies directed against specific epitopes of the renin molecule allowed accurate and sensitive quantification. The assays were performed according to the instructions provided by the manufacturer. […] The analytical sensitivity was <0.97 ng/ml. […] The analytical sensitivity was <0.53 IU/mL.
For all efficacy endpoints, changes from baseline were calculated from linear models and accompanied by 95% confidence intervals and p values. Log-transformed values were used for changes in ARR. The full analysis set (FAS) and safety set were defined as all randomized patients who received at least one dose of study drug.

[2] = test system: patients with primary aldosteronism; remark: listed apart in the source
Protocol: as §1
The urinary content of tetrahydroaldosterone (THA) was measured centrally by gas chromatography-coupled mass spectrometry (GC-MS).

[3] = 4 mg once daily, n=10, Day 1 (baseline)
[4] = 4 mg once daily, n=10, Day 70 (after placebo withdrawal)
[5] = 8 mg once daily, n=12, Day 1 (baseline)
[6] = 8 mg once daily, n=12, Day 70 (after placebo withdrawal)
[7] = 12 mg once daily, n=13, Day 1 (baseline)
[8] = 12 mg once daily, n=13, Day 70 (so in the source)

Substance: (R)-(+)-5-(p-cyanophenyl)-5,6,7,8-tetrahydroimidazolium[1,5-a]pyridine dihydrogen phosphate [dexfadrostat phosphate]
- change in ARR from baseline to Day 56, mean ([1]; 4 mg once daily, n=10): −20.87 (ng/dL)/(mU/L)
- change in ARR from baseline to Day 56, median ([1]; 4 mg once daily, n=10): −14.98 (ng/dL)/(mU/L)
- ARR, mean [1, 3]: 24.56 (ng/dL)/(mU/L)
- ARR, median [1, 3]: 21.37 (ng/dL)/(mU/L)
- ARR, mean ([1]; 4 mg once daily, n=10, Day 14): 4.57 (ng/dL)/(mU/L)
- ARR, median ([1]; 4 mg once daily, n=10, Day 14): 3.76 (ng/dL)/(mU/L)
- ARR, mean ([1]; 4 mg once daily, n=10, Day 28): 2.57 (ng/dL)/(mU/L)
- ARR, median ([1]; 4 mg once daily, n=10, Day 28): 1.76 (ng/dL)/(mU/L)
- ARR, mean ([1]; 4 mg once daily, n=10, Day 42): 2.87 (ng/dL)/(mU/L)
- ARR, median ([1]; 4 mg once daily, n=10, Day 42): 2.07 (ng/dL)/(mU/L)
- ARR, mean ([1]; 4 mg once daily, n=10, Day 56): 3.70 (ng/dL)/(mU/L)
- ARR, median ([1]; 4 mg once daily, n=10, Day 56): 2.52 (ng/dL)/(mU/L)
- ARR, mean [1, 4]: 12.34 (ng/dL)/(mU/L)
- ARR, median [1, 4]: 11.47 (ng/dL)/(mU/L)
- change in ARR from baseline to Day 56, mean ([1]; 8 mg once daily, n=12): −10.61 (ng/dL)/(mU/L)
- change in ARR from baseline to Day 56, median ([1]; 8 mg once daily, n=12): −6.99 (ng/dL)/(mU/L)
- ARR, mean [1, 5]: 11.58 (ng/dL)/(mU/L)
- ARR, median [1, 5]: 7.18 (ng/dL)/(mU/L)
- ARR, mean ([1]; 8 mg once daily, n=12, Day 14): 0.8 (ng/dL)/(mU/L)
- ARR, median ([1]; 8 mg once daily, n=12, Day 14): 0.31 (ng/dL)/(mU/L)
- ARR, mean ([1]; 8 mg once daily, n=12, Day 28): 1.26 (ng/dL)/(mU/L)
- ARR, median ([1]; 8 mg once daily, n=12, Day 28): 0.4 (ng/dL)/(mU/L)
- ARR, mean ([1]; 8 mg once daily, n=12, Day 42): 0.74 (ng/dL)/(mU/L)
- ARR, median ([1]; 8 mg once daily, n=12, Day 42): 0.29 (ng/dL)/(mU/L)
- ARR, mean ([1]; 8 mg once daily, n=12, Day 56): 0.96 (ng/dL)/(mU/L)
- ARR, median ([1]; 8 mg once daily, n=12, Day 56): 0.27 (ng/dL)/(mU/L)
- ARR, mean [1, 6]: 4.19 (ng/dL)/(mU/L)
- ARR, median [1, 6]: 2.46 (ng/dL)/(mU/L)
- change in ARR from baseline to Day 56, mean ([1]; 12 mg once daily, n=13): −15.61 (ng/dL)/(mU/L)
- change in ARR from baseline to Day 56, median ([1]; 12 mg once daily, n=13): −13.97 (ng/dL)/(mU/L)
- ARR, mean [1, 7]: 17.75 (ng/dL)/(mU/L)
- ARR, median [1, 7]: 17.8 (ng/dL)/(mU/L)
- ARR, mean [1, 8]: 9.3 (ng/dL)/(mU/L)
- ARR, median [1, 8]: 13.72 (ng/dL)/(mU/L)
- ARR upon drug withdrawal ([1]; Day 70, after 14-day placebo withdrawal): ARR values returned towards baseline values
- change in ARR from baseline to Day 56, mean ([1]; all doses combined, n=35): −15.40 (ng/dL)/(mU/L)
- change in ARR from baseline to Day 56, median ([1]; all doses combined, n=35): −11.76 (ng/dL)/(mU/L)
- LSM change in lognormal values of ARR from baseline ([1]; all patients, Day 1 to Day 56, FIG. 2A, p<0.0001): −2.54 (95% CI −2.9 to −2.2)
- effect on ARR from baseline to day 56 ([1]; all three doses (4 mg, 8 mg, 12 mg)): significant reductions (p<0.0001) in ARR from baseline to day 56
- effect on ARR over time ([1]; all three doses, baseline to day 14, 28, 42 and 56): rapid and significant (p<0.0001) reductions in ARR; also recorded: rapid and significant reductions (p<0.0001) in ARR
- change in urine THA content from baseline to Day 56, mean ([2]; 4 mg once daily, n=10): −66.90 24 μg/24-hour
- change in urine THA content from baseline to Day 56, median ([2]; 4 mg once daily, n=10): −61.00 24 μg/24-hour
- urine tetrahydroaldosterone (THA) content, mean [2, 3]: 78.90 24 μg/24-hour
- urine tetrahydroaldosterone (THA) content, median [2, 3]: 80.00 24 μg/24-hour
- urine tetrahydroaldosterone (THA) content, mean ([2]; 4 mg once daily, n=10, Day 56): 12.00 24 μg/24-hour
- urine tetrahydroaldosterone (THA) content, median ([2]; 4 mg once daily, n=10, Day 56): 11.50 24 μg/24-hour
- change in urine THA content from baseline to Day 56, mean ([2]; 8 mg once daily, n=12): −63.00 24 μg/24-hour
- change in urine THA content from baseline to Day 56, median ([2]; 8 mg once daily, n=12): −50.00 24 μg/24-hour
- urine tetrahydroaldosterone (THA) content, mean [2, 5]: 71.67 24 μg/24-hour
- urine tetrahydroaldosterone (THA) content, median [2, 5]: 59.50 24 μg/24-hour
- urine tetrahydroaldosterone (THA) content, mean ([2]; 8 mg once daily, n=12, Day 56): 8.67 24 μg/24-hour
- urine tetrahydroaldosterone (THA) content, median ([2]; 8 mg once daily, n=12, Day 56): 5.00 24 μg/24-hour
- change in urine THA content from baseline to Day 56, mean ([2]; 12 mg once daily, n=13): −58.31 24 μg/24-hour
- change in urine THA content from baseline to Day 56, median ([2]; 12 mg once daily, n=13): −66.00 24 μg/24-hour
- urine tetrahydroaldosterone (THA) content, mean [2, 7]: 67.38 24 μg/24-hour
- urine tetrahydroaldosterone (THA) content, median [2, 7]: 69.00 24 μg/24-hour
- urine tetrahydroaldosterone (THA) content, mean ([2]; 12 mg once daily, n=13, Day 56): 9.08 24 μg/24-hour
- urine tetrahydroaldosterone (THA) content, median ([2]; 12 mg once daily, n=13, Day 56): 5.00 24 μg/24-hour
- effect on urinary tetrahydroaldosterone content ([2]; all three doses, 24-hour urine at end of active treatment vs baseline): significant reductions (p<0.0001) in tetrahydroaldosterone (THA) content
- urine aldosterone content, mean ([2]; baseline urine aldosterone 10-50 μg/24-hour, 4 mg QD, Day 1 (baseline)): 26 μg/24-hour
- urine aldosterone content, mean ([2]; baseline urine aldosterone 10-50 μg/24-hour, 4 mg QD, Day 56): 6 μg/24-hour
- urine aldosterone content, mean ([2]; baseline urine aldosterone 10-50 μg/24-hour, 8 mg QD, Day 1 (baseline)): 33 μg/24-hour
- urine aldosterone content, mean ([2]; baseline urine aldosterone 10-50 μg/24-hour, 8 mg QD, Day 56): 8 μg/24-hour
- urine aldosterone content, mean ([2]; baseline urine aldosterone 10-50 μg/24-hour, 12 mg QD, Day 1 (baseline)): 29 μg/24-hour
- urine aldosterone content, mean ([2]; baseline urine aldosterone 10-50 μg/24-hour, 12 mg QD, Day 56): 3 μg/24-hour
- urine aldosterone content, mean ([2]; baseline urine aldosterone 50-100 μg/24-hour, 4 mg QD, Day 1 (baseline)): 74 μg/24-hour
- urine aldosterone content, mean ([2]; baseline urine aldosterone 50-100 μg/24-hour, 4 mg QD, Day 56): 15 μg/24-hour
- urine aldosterone content, mean ([2]; baseline urine aldosterone 50-100 μg/24-hour, 8 mg QD, Day 1 (baseline)): 69 μg/24-hour
- urine aldosterone content, mean ([2]; baseline urine aldosterone 50-100 μg/24-hour, 8 mg QD, Day 56): 5 μg/24-hour
- urine aldosterone content, mean ([2]; baseline urine aldosterone 50-100 μg/24-hour, 12 mg QD, Day 1 (baseline)): 68 μg/24-hour
- urine aldosterone content, mean ([2]; baseline urine aldosterone 50-100 μg/24-hour, 12 mg QD, Day 56): 12 μg/24-hour
- urine aldosterone content, mean ([2]; baseline urine aldosterone 100-250 μg/24-hour, 4 mg QD, Day 1 (baseline)): 123 μg/24-hour
- urine aldosterone content, mean ([2]; baseline urine aldosterone 100-250 μg/24-hour, 4 mg QD, Day 56): 13 μg/24-hour
- urine aldosterone content, mean ([2]; baseline urine aldosterone 100-250 μg/24-hour, 8 mg QD, Day 1 (baseline)): 69 μg/24-hour
- urine aldosterone content, mean ([2]; baseline urine aldosterone 100-250 μg/24-hour, 8 mg QD, Day 56): 5 μg/24-hour
- urine aldosterone content, mean ([2]; baseline urine aldosterone 100-250 μg/24-hour, 12 mg QD, Day 1 (baseline)): 68 μg/24-hour
- urine aldosterone content, mean ([2]; baseline urine aldosterone 100-250 μg/24-hour, 12 mg QD, Day 56): 12 μg/24-hour
